Reference: the supplement of paper PMC10307832

Columns and labels:
Assay in all cases: relative viability (nuclei count vs DMSO), 5 days (fraction); higher = more cells survive
[1] = tested on: NCI-H1666
Method in brief: (§1)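 Values are medians from duplicate plates. Each reflects relative viability, defined as the nuclei count of treated wells over that of vehicle wells. Lung cancer cell lines in 1536-well plates were pin-tool dosed one day after seeding with one drug alone or with a fixed anchor-drug dose plus five library-drug doses (not always all listed) in √10 steps, then fixed, stained and imaged at 4× after 5 days.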

[2] = tested on: COR-L 105
Method in brief: as §1

[3] = tested on: EKVX
Method in brief: as §1

[4] = tested on: LCLC-97TM1
Method in brief: as §1

[5] = tested on: NCI-H650
Method in brief: as §1

[6] = tested on: NCI-H2085
Method in brief: as §1

[7] = tested on: NCI-H1437
Method in brief: as §1

[8] = tested on: SW 1573
Method in brief: as §1

[9] = tested on: NCI-H2342
Method in brief: as §1

[10] = tested on: LOU-NH91
Method in brief: as §1

[11] = tested on: NCI-H2087
Method in brief: as §1

[12] = tested on: LU99A
Method in brief: as §1

[13] = tested on: H3255
Method in brief: as §1

[14] = tested on: NCI-H2170
Method in brief: as §1

[15] = tested on: HCC-827
Method in brief: as §1

[16] = tested on: HCC-44
Method in brief: as §1

[17] = tested on: NCI-H647
Method in brief: as §1

[18] = tested on: 201T
Method in brief: as §1

[19] = tested on: EPLC-272H
Method in brief: as §1

[20] = tested on: BEN
Method in brief: as §1

[21] = tested on: NCI-H1975
Method in brief: as §1

[22] = tested on: PC-3 [JPC-3]
Method in brief: as §1

Question: With `CC(=O)O[C@@]12CO[C@@H]1C[C@H](O)[C@@]1(C)C(=O)[C@H](O)C3=C(C)[C@@H](OC(=O)[C@H](O)[C@@H](NC(=O)OC(C)(C)C)c4ccccc4)C[C@@](O)([C@@H](OC(=O)c4ccccc4)[C@H]21)C3(C)C` [Docetaxel] + Nc1ncn([C@H]2C[C@H](O)[C@@H](CO)O2)c(=O)n1 [Decitabine] (partner 2 µM) as the compound, how does the relative viability ([1]; first compound 0.0002 µM) read?
Answer: 0.594

Question: What about the relative viability ([1]; first compound 0.000632 µM) of the same compound?
Answer: 0.64

Question: And the relative viability ([1]; first compound 0.002 µM)?
Answer: 0.504

Question: And the relative viability ([1]; first compound 0.006325 µM)?
Answer: 0.477

Question: And the relative viability ([1]; first compound 0.02 µM)?
Answer: 0.425

Question: And the relative viability ([2]; first compound 0.0002 µM)?
Answer: 0.666

Question: And the relative viability ([2]; first compound 0.000632 µM)?
Answer: 0.533

Question: And the relative viability ([2]; first compound 0.002 µM)?
Answer: 0.442

Question: And the relative viability ([2]; first compound 0.006325 µM)?
Answer: 0.394

Question: And the relative viability ([2]; first compound 0.02 µM)?
Answer: 0.364

Question: And the relative viability ([3]; first compound 0.0002 µM)?
Answer: 0.279

Question: And the relative viability ([3]; first compound 0.000632 µM)?
Answer: 0.327

Question: What about the relative viability ([3]; first compound 0.002 µM) of the same compound?
Answer: 0.26

Question: And the relative viability ([3]; first compound 0.006325 µM)?
Answer: 0.198

Question: What about the relative viability ([3]; first compound 0.02 µM) of the same compound?
Answer: 0.134

Question: What about the relative viability ([4]; first compound 0.0002 µM) of the same compound?
Answer: 0.208

Question: What about the relative viability ([4]; first compound 0.000632 µM) of the same compound?
Answer: 0.189

Question: And the relative viability ([4]; first compound 0.002 µM)?
Answer: 0.133

Question: What about the relative viability ([4]; first compound 0.006325 µM) of the same compound?
Answer: 0.112

Question: What about the relative viability ([4]; first compound 0.02 µM) of the same compound?
Answer: 0.0836

Question: And the relative viability ([5]; first compound 0.0002 µM)?
Answer: 0.299

Question: And the relative viability ([5]; first compound 0.000632 µM)?
Answer: 0.307

Question: What about the relative viability ([5]; first compound 0.002 µM) of the same compound?
Answer: 0.274

Question: What about the relative viability ([5]; first compound 0.006325 µM) of the same compound?
Answer: 0.278

Question: And the relative viability ([5]; first compound 0.02 µM)?
Answer: 0.127

Question: And the relative viability ([6]; first compound 0.0002 µM)?
Answer: 0.539

Question: And the relative viability ([6]; first compound 0.000632 µM)?
Answer: 0.612

Question: What about the relative viability ([6]; first compound 0.002 µM) of the same compound?
Answer: 0.552

Question: What about the relative viability ([6]; first compound 0.006325 µM) of the same compound?
Answer: 0.459

Question: And the relative viability ([6]; first compound 0.02 µM)?
Answer: 0.401

Question: And the relative viability ([7]; first compound 0.0002 µM)?
Answer: 0.526

Question: What about the relative viability ([7]; first compound 0.000632 µM) of the same compound?
Answer: 0.629

Question: And the relative viability ([7]; first compound 0.002 µM)?
Answer: 0.406

Question: What about the relative viability ([7]; first compound 0.006325 µM) of the same compound?
Answer: 0.307

Question: And the relative viability ([7]; first compound 0.02 µM)?
Answer: 0.196

Question: What about the relative viability ([8]; first compound 0.0002 µM) of the same compound?
Answer: 0.387

Question: And the relative viability ([8]; first compound 0.000632 µM)?
Answer: 0.296

Question: And the relative viability ([8]; first compound 0.002 µM)?
Answer: 0.172

Question: What about the relative viability ([8]; first compound 0.006325 µM) of the same compound?
Answer: 0.165

Question: And the relative viability ([8]; first compound 0.02 µM)?
Answer: 0.121

Question: And the relative viability ([9]; first compound 0.0002 µM)?
Answer: 0.72

Question: What about the relative viability ([9]; first compound 0.000632 µM) of the same compound?
Answer: 0.72

Question: What about the relative viability ([9]; first compound 0.002 µM) of the same compound?
Answer: 0.583

Question: What about the relative viability ([9]; first compound 0.006325 µM) of the same compound?
Answer: 0.519

Question: And the relative viability ([9]; first compound 0.02 µM)?
Answer: 0.489

Question: What about the relative viability ([10]; first compound 0.0002 µM) of the same compound?
Answer: 0.822

Question: What about the relative viability ([10]; first compound 0.000632 µM) of the same compound?
Answer: 0.841

Question: And the relative viability ([10]; first compound 0.002 µM)?
Answer: 0.621

Question: And the relative viability ([10]; first compound 0.006325 µM)?
Answer: 0.518

Question: What about the relative viability ([10]; first compound 0.02 µM) of the same compound?
Answer: 0.379

Question: What about the relative viability ([11]; first compound 0.0002 µM) of the same compound?
Answer: 0.286

Question: And the relative viability ([11]; first compound 0.000632 µM)?
Answer: 0.227

Question: And the relative viability ([11]; first compound 0.002 µM)?
Answer: 0.172

Question: And the relative viability ([11]; first compound 0.006325 µM)?
Answer: 0.0964

Question: And the relative viability ([11]; first compound 0.02 µM)?
Answer: 0.098

Question: What about the relative viability ([12]; first compound 0.0002 µM) of the same compound?
Answer: 0.87

Question: What about the relative viability ([12]; first compound 0.000632 µM) of the same compound?
Answer: 0.872

Question: What about the relative viability ([12]; first compound 0.002 µM) of the same compound?
Answer: 0.466

Question: And the relative viability ([12]; first compound 0.006325 µM)?
Answer: 0.363

Question: And the relative viability ([12]; first compound 0.02 µM)?
Answer: 0.204

Question: And the relative viability ([13]; first compound 0.0002 µM)?
Answer: 0.734

Question: What about the relative viability ([13]; first compound 0.000632 µM) of the same compound?
Answer: 0.566

Question: And the relative viability ([13]; first compound 0.002 µM)?
Answer: 0.335

Question: What about the relative viability ([13]; first compound 0.006325 µM) of the same compound?
Answer: 0.31

Question: What about the relative viability ([13]; first compound 0.02 µM) of the same compound?
Answer: 0.27

Question: And the relative viability ([14]; first compound 0.0002 µM)?
Answer: 0.472

Question: And the relative viability ([14]; first compound 0.000632 µM)?
Answer: 0.437

Question: And the relative viability ([14]; first compound 0.002 µM)?
Answer: 0.371

Question: What about the relative viability ([14]; first compound 0.006325 µM) of the same compound?
Answer: 0.172

Question: And the relative viability ([14]; first compound 0.02 µM)?
Answer: 0.151

Question: And the relative viability ([15]; first compound 0.0002 µM)?
Answer: 0.2

Question: What about the relative viability ([15]; first compound 0.000632 µM) of the same compound?
Answer: 0.343

Question: And the relative viability ([15]; first compound 0.002 µM)?
Answer: 0.279

Question: And the relative viability ([15]; first compound 0.006325 µM)?
Answer: 0.251

Question: What about the relative viability ([15]; first compound 0.02 µM) of the same compound?
Answer: 0.236

Question: What about the relative viability ([16]; first compound 0.0002 µM) of the same compound?
Answer: 0.96

Question: And the relative viability ([16]; first compound 0.000632 µM)?
Answer: 0.97

Question: And the relative viability ([16]; first compound 0.002 µM)?
Answer: 0.853

Question: What about the relative viability ([16]; first compound 0.006325 µM) of the same compound?
Answer: 0.472

Question: And the relative viability ([16]; first compound 0.02 µM)?
Answer: 0.566

Question: And the relative viability ([17]; first compound 0.000632 µM)?
Answer: 0.468

Question: And the relative viability ([17]; first compound 0.002 µM)?
Answer: 0.171

Question: And the relative viability ([17]; first compound 0.006325 µM)?
Answer: 0.153

Question: And the relative viability ([17]; first compound 0.02 µM)?
Answer: 0.109

Question: And the relative viability ([18]; first compound 0.0002 µM)?
Answer: 0.782

Question: And the relative viability ([18]; first compound 0.000632 µM)?
Answer: 0.778

Question: What about the relative viability ([18]; first compound 0.002 µM) of the same compound?
Answer: 0.701

Question: And the relative viability ([18]; first compound 0.006325 µM)?
Answer: 0.47

Question: What about the relative viability ([18]; first compound 0.02 µM) of the same compound?
Answer: 0.331

Question: And the relative viability ([19]; first compound 0.0002 µM)?
Answer: 0.364

Question: What about the relative viability ([19]; first compound 0.000632 µM) of the same compound?
Answer: 0.308

Question: What about the relative viability ([19]; first compound 0.002 µM) of the same compound?
Answer: 0.179

Question: What about the relative viability ([19]; first compound 0.006325 µM) of the same compound?
Answer: 0.127

Question: What about the relative viability ([19]; first compound 0.02 µM) of the same compound?
Answer: 0.0741

Question: And the relative viability ([20]; first compound 0.0002 µM)?
Answer: 0.522

Question: And the relative viability ([20]; first compound 0.000632 µM)?
Answer: 0.621

Question: What about the relative viability ([20]; first compound 0.002 µM) of the same compound?
Answer: 0.426

Question: What about the relative viability ([20]; first compound 0.006325 µM) of the same compound?
Answer: 0.417

Question: What about the relative viability ([20]; first compound 0.02 µM) of the same compound?
Answer: 0.325

Question: And the relative viability ([21]; first compound 0.0002 µM)?
Answer: 0.37

Question: And the relative viability ([21]; first compound 0.000632 µM)?
Answer: 0.389

Question: What about the relative viability ([21]; first compound 0.002 µM) of the same compound?
Answer: 0.223

Question: And the relative viability ([21]; first compound 0.006325 µM)?
Answer: 0.177

Question: And the relative viability ([21]; first compound 0.02 µM)?
Answer: 0.122

Question: What about the relative viability ([22]; first compound 0.0002 µM) of the same compound?
Answer: 0.816

Question: And the relative viability ([22]; first compound 0.000632 µM)?
Answer: 0.849

Question: What about the relative viability ([22]; first compound 0.002 µM) of the same compound?
Answer: 0.666

Question: What about the relative viability ([22]; first compound 0.006325 µM) of the same compound?
Answer: 0.5

Question: What about the relative viability ([22]; first compound 0.02 µM) of the same compound?
Answer: 0.294
